Measured values as given in patent US20170210757A1 (ALFA WASSERMANN S.P.A., priority 2003, published 2017).
Read-outs that look alike come from different tables or passages of the source.

Assays:
[1] = Bioavailability in dogs by oral route (plasma rifaximin by LC-MS/MS); assay type: in vivo, Beagle female dogs
Procedure: Twelve 20 week pure-bred Beagle females dogs, and weighing between 5.0 and 7.5 kg, have been divided into three groups of four.
Each sample was transferred into an heparinized tube and was centrifuged; the plasma was divided into 50μl two aliquots and frozen at −20° C.
Tmax=time at which the Cmax is reached;
AUC=area under the concentration-time curve calculated through the linear trapezoidal rule.

[2] = Intrinsic dissolution test (USP 27 monograph 1087); assay type: physicochemical
From the text: The die-holder containing the compacted pellet has then been mounted on a laboratory stirring device, immersed in a dissolution medium and rotated by means of the stirring device.
A compacted pellet was formed in the die with a single face of defined area exposed on the bottom of the die so that from 50% to 75% of the compacted pellet could dissolve in an appropriate dissolution medium.
The holder containing the die was mounted on a laboratory stirring device, immersed in a glass vessel containing a dissolution medium and rotated at a rotation speed of 100 rpm by means of the stirring device, while keeping the temperature of the dissolution medium at 37±0.5° C. […]

[3] = Hygroscopicity and humidity-dependent transition between polymorphic forms; assay type: physicochemical; conditions: for hygroscopicity: reversibly absorb water under suitable conditions of pressure and humidity
From the text: Both the form γ and the forms α and β of rifaximin are hygroscopic, they reversibly absorb water in time in the presence of suitable environmental conditions of pressure and humidity and are susceptible of transformation from one form into another.

[4] = single oral administration of 100 mg/kg by capsules to female dogs, plasma, listed as Polimorph α, 100 mg/kg
[5] = single oral administration of 100 mg/kg by capsules to female dogs, plasma, listed as Polimorph β, 100 mg/kg
[6] = single oral administration of 100 mg/kg by capsules to female dogs, plasma, listed as Polimorph γ, 100 mg/kg

## CO[C@H]1/C=C/O[C@@]2(C)Oc3c(C)c(O)c4c(O)c(c5c(nc6cc(C)ccn65)c4c3C2=O)NC(=O)/C(C)=C\C=C\[C@H](C)[C@H](O)[C@@H](C)[C@@H](O)[C@@H](C)[C@H](OC(C)=O)[C@@H]1C [rifaximin α, rifaximin]
[1]; Beagle, dog, plasma, oral, 100 mg/kg, pharmaceutical composition comprising the polymorphic form, conditions not stated, read-out: Cmax (summary embodiment)
  Cmax: ~2 ng/mL
[1]; female, Beagle, dog, plasma, po, 100 mg/kg, single oral administration of 100 mg/kg by capsules to female dogs
  Tmax: 9.5 h
[1]; pharmaceutical composition comprising the polymorphic form, conditions not stated, listed as rifaximin in polymorphic form α
  AUC0-24 h (summary embodiment): about 13 ng·h/ml
[1]; [4]
  AUC0-24 Mean: 13 ng·h/mL
  Cmax Mean: 2.632 ng/mL
[2]; phosphate buffer pH 7.4, 37°C, with sodium lauryl sulfate, also at 0.1% and 0.3% and without surfactant
  disintegration of the compacted pellet (time): ≤ 10 min
[3]; relative humidity higher than 50% for 12 to 48 hours
  solid form transition under humidity: changes into the polymorphic form β
[3]
  hygroscopicity: hygroscopic

## CO[C@H]1/C=C/O[C@@]2(C)Oc3c(C)c(O)c4c(O)c(c5c(nc6cc(C)ccn65)c4c3C2=O)NC(=O)/C(C)=C\C=C\[C@H](C)[C@H](O)[C@@H](C)[C@@H](O)[C@@H](C)[C@H](OC(C)=O)[C@@H]1C [rifaximin β, rifaximin]
[1]; pharmaceutical composition comprising the polymorphic form, conditions not stated, listed as rifaximin in polymorphic form β
  AUC0-24 h (summary embodiment): about 11 ng·h/ml
[1]; [5]
  AUC0-24 Mean: 11 ng·h/mL
  tmax Mean: 4 h
[2]; 0.1M aqueous phosphate buffer pH 7.4 with 0.45% sodium lauryl sulfate, 37°C, listed as β polymorph
  Intrinsic dissolution rate: 0.0147 mg/min/cm^2
[2]; 15 min, 0.1M aqueous phosphate buffer pH 7.4 with 0.45% sodium lauryl sulfate, 37°C, listed as β polymorph
  Rifaximin dissolved: 0.28 mg/cm^2
[2]; 30 min, 0.1M aqueous phosphate buffer pH 7.4 with 0.45% sodium lauryl sulfate, 37°C, listed as β polymorph
  Rifaximin dissolved: 0.50 mg/cm^2
[2]; 45 min, 0.1M aqueous phosphate buffer pH 7.4 with 0.45% sodium lauryl sulfate, 37°C, listed as β polymorph
  Rifaximin dissolved: 0.71 mg/cm^2
[2]; 60 min, 0.1M aqueous phosphate buffer pH 7.4 with 0.45% sodium lauryl sulfate, 37°C, listed as β polymorph
  Rifaximin dissolved: 0.94 mg/cm^2
[2]; pharmaceutical composition comprising the polymorphic form, conditions not stated
  intrinsic dissolution rate (summary embodiment): about 0.01 mg/min/cm^2
[3]
  hygroscopicity: hygroscopic

## CO[C@H]1/C=C/O[C@@]2(C)Oc3c(C)c(O)c4c(O)c(c5c(nc6cc(C)ccn65)c4c3C2=O)NC(=O)/C(C)=C\C=C\[C@H](C)[C@H](O)[C@@H](C)[C@@H](O)[C@@H](C)[C@H](OC(C)=O)[C@@H]1C [rifaximin γ, rifaximin]
[1]; female, Beagle, dog, plasma, po, 100 mg/kg, oral 100 mg/kg, Beagle female dogs, read-out: Cmax
  Cmax: 668 ng/mL
[1]; oral 100 mg/kg, Beagle female dogs
  absorption in respect of rifaximin α and rifaximin β: more than 102 times
[1]; pharmaceutical composition comprising the polymorphic form, conditions not stated, listed as rifaximin in polymorphic form γ
  AUC0-24 h (summary embodiment): about 4000 ng·h/ml
[1]; [6]
  AUC0-24 Mean: 3908 ng·h/mL
  Cmax Mean: 668.22 ng/mL
[3]
  hygroscopicity: hygroscopic
